For 44 molecules, EC50, IC50 and Activity results are on record in ChEMBL document CHEMBL1140535, “Synthesis and evaluation of substituted benzoisoquinolinones as potent inhibitors of Chk1 kinase” (Bioorg Med Chem Lett, 2007).

SMILES strings stand for the structures. Active and inactive are the calls of the source. No cut-off for these calls is given here.

One assay relates to NCI-H1299. The experiment in a line: Inhibition of camptothecin induced mitotic arrest in human NCI-H1299 cells after 18 hrs. Format: functional, cell-based. The conditions noted are these: NCI-H1299, 18 h.
For assay [1], the target named is T1, Serine/threonine-protein kinase Chk1 (Homo sapiens, UniProt O14757).
T1 sequence (O14757 whole entry): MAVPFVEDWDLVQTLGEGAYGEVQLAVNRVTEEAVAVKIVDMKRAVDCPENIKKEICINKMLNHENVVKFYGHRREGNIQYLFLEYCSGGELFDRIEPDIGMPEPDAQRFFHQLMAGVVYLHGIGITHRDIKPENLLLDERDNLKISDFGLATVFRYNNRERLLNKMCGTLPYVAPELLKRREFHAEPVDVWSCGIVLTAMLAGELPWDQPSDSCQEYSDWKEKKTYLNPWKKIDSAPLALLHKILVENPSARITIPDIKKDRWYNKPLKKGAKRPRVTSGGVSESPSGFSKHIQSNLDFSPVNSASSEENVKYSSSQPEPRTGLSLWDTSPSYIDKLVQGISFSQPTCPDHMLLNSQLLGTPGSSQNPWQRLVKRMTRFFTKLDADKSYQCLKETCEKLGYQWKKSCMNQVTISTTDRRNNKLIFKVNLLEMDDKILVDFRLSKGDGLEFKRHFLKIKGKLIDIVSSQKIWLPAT
The assay can be described thus: Inhibition of human Chk1 expressed in baculovirus by time-resolved fluorescence assay.

In assay [2] the test system is HT-29. The assay can be described thus: Effect on apoptosis in HT29 cells assessed as increase in camptothecin induced caspase 3 activation after 24 hrs. The conditions noted are these: Homo sapiens. Format: functional, cell-based.
The test system of assay [3] is HT-29. The experiment in a line: Effect on apoptosis in HT29 cells assessed as increase in caspase 3 activation after 24 hrs. The format is functional, cell-based. The conditions noted are these: Homo sapiens.

For the molecule `NCCCc1cc2cc[nH]c(=O)c2c2cc(Br)ccc12`, the concentration for a half-maximal effect (EC50) with NCI-H1299 turned out to be 310 nM. The same molecule returned an IC50 in assay [1] of 17 nM.
Consider `NCCCc1cc2cc[nH]c(=O)c2c2ccccc12`, for which the IC50 in assay [1] turned out to be 98 nM.
Take `O=c1[nH]ccc2cc(CCO)c3ccc(Br)cc3c12`: the midpoint of inhibition in assay [1], the IC50, lay at 780 nM.
Still for that read-out and setting: the same measure for `COC(=O)c1cc2cc[nH]c(=O)c2c2cc(Cl)ccc12`: 360 nM.
Regarding `NCCCc1cc2c(-c3cccc(F)c3)c[nH]c(=O)c2c2cc(-c3cn[nH]c3)ccc12`, the EC50 in the assay on NCI-H1299 is 300 nM. The molecule further registered an IC50 in assay [1] of 3.7 nM.
`O=c1[nH]ccc2cc(CO)c3ccc(Br)cc3c12` gave a half-inhibitory concentration (IC50) in assay [1] of 440 nM.
In the assay with NCI-H1299, `NCCCc1cc2c(-c3ccc(Cl)cc3Cl)c[nH]c(=O)c2c2cc(-c3cn[nH]c3)ccc12` returned an EC50 of 270 nM. The molecule further displayed an IC50 in assay [1] of 1.2 nM.
In the case of `COC(=O)c1cc2cc[nH]c(=O)c2c2cc(Br)ccc12`, the IC50 in assay [1] came out at 300 nM.
As for `NCCCc1cc2c(-c3cccc(O)c3)c[nH]c(=O)c2c2cc(-c3cn[nH]c3)ccc12`, the EC50 in the assay with NCI-H1299 was 67 nM. The molecule also registered an IC50 in assay [1] of 1 nM.
Taken in the same sequence, the figures for `NCCCc1cc2c(-c3cccc(Cl)c3)c[nH]c(=O)c2c2cc(-c3cn[nH]c3)ccc12` were 1050 nM and 11.5 nM.
For `NCCCc1cc2c(-c3ccccc3Cl)c[nH]c(=O)c2c2cc(-c3cn[nH]c3)ccc12`, in the assay on NCI-H1299, the EC50 was 130 nM. In assay [1], the IC50 was found to be 0.8 nM.
In turn, `NCCc1cc2cc[nH]c(=O)c2c2cc(Cl)ccc12` gave an IC50 in assay [1] of 11 nM.
`NCCCc1cc2cc[nH]c(=O)c2c2cc(Cl)ccc12` displayed an EC50 in the assay with NCI-H1299 of 230 nM. This molecule also showed an IC50 in assay [1] of 12 nM.
Take `O=c1[nH]ccc2c3[nH]cnc3c3ccc(F)cc3c12`: the IC50 in assay [1] was determined as 610 nM.
Take `NCCCc1cc2c(-c3ccccc3O)c[nH]c(=O)c2c2cc(-c3cn[nH]c3)ccc12`: the response with NCI-H1299 was half-maximal at 230 nM (EC50). The same molecule came in with an IC50 in assay [1] of 2 nM.
Taken in the same sequence, the figures for `Cn1cc(-c2ccc3c(CCCN)cc4cc[nH]c(=O)c4c3c2)cn1` were 957 nM and 9.2 nM.
In the assay on NCI-H1299, `NCCCc1cc2cc[nH]c(=O)c2c2cc(-c3ccc[nH]3)ccc12` had an EC50 of 44 nM. The molecule further yielded an IC50 in assay [1] of 2.4 nM.
`NCCc1cc2cc[nH]c(=O)c2c2cc(-c3cn[nH]c3)ccc12`: the result in the assay on HT-29 [2] was Active. This molecule gave an EC50 with NCI-H1299 of 79 nM. For the same molecule, the outcome in the assay on HT-29 [3] was inactive. This molecule yielded an IC50 in assay [1] of 3 nM.
In the assay on NCI-H1299, `NCCCc1cc2cc[nH]c(=O)c2c2cc(C(N)=O)ccc12` gave a concentration giving a half-maximal response (EC50) of over 10000 nM. This molecule registered an IC50 in assay [1] of 11 nM.
As to `NCCCc1cc2c(-c3ccccc3F)c[nH]c(=O)c2c2cc(-c3cn[nH]c3)ccc12`, the half-maximal effective concentration (EC50) in the assay on NCI-H1299 is 370 nM. For the same molecule, the IC50 in assay [1] came to 2.6 nM.
Molecule `NCCCc1cc2cc[nH]c(=O)c2c2cc(-c3ccc(CN)cc3)ccc12` yielded an EC50 in the assay on NCI-H1299 of 1080 nM. Also, the IC50 in assay [1] worked out at 6.5 nM.
For `NCCCc1cc2cc[nH]c(=O)c2c2cc(-c3cn[nH]c3)ccc12`, the response in the assay on NCI-H1299 was half-maximal at 64 nM (EC50). Moreover, inhibition in assay [1] was half-maximal at 3.5 nM (IC50).
Consider `N#CCCc1cc2cc[nH]c(=O)c2c2cc(Br)ccc12`, for which, in assay [1], 420 nM corresponded to half-maximal inhibition (IC50).
On the same count and under the same terms, with `CN(C)CCc1cc2cc[nH]c(=O)c2c2cc(Br)ccc12` the figure was 130 nM.
`NCCCc1cc2c(Br)c[nH]c(=O)c2c2cc(-c3cn[nH]c3)ccc12` had an EC50 in the assay on NCI-H1299 of 140 nM. The molecule also showed a half-maximal inhibitory concentration (IC50) in assay [1] of 2.3 nM.
On to `N#Cc1cc2cc[nH]c(=O)c2c2cc(Br)ccc12`, for which the IC50 in assay [1] amounted to 400 nM.
Take `NCCCc1cc2c(-c3ccc(O)cc3)c[nH]c(=O)c2c2cc(-c3cn[nH]c3)ccc12`: the EC50 in the assay with NCI-H1299 was found to be 47 nM. The molecule further showed an IC50 in assay [1] of 0.3 nM.
In assay [1], `O=c1[nH]ccc2c3[nH]c(-c4cccnc4)nc3c3ccc(F)cc3c12` yielded an IC50 of 110 nM.
`N#Cc1cc2cc[nH]c(=O)c2c2cc(Cl)ccc12` yielded an IC50 in assay [1] of 1060 nM.
In turn, `NCCc1cc2cc[nH]c(=O)c2c2cc(-c3ccc(CN4CCOCC4)cc3)ccc12` showed an EC50 with NCI-H1299 of 130 nM. In addition, half-maximal inhibition in assay [1] (IC50) required 0.6 nM.
Turning to `NCCc1cc2cc[nH]c(=O)c2c2cc(Br)ccc12`, in assay [1], inhibition was half-maximal at 3 nM (IC50).
With `NCCCc1cc2c(-c3ccc(F)cc3)c[nH]c(=O)c2c2cc(-c3cn[nH]c3)ccc12`, a half-maximal effect in the assay with NCI-H1299 (EC50) was put at 370 nM. Moreover, the midpoint of inhibition in assay [1], the IC50, lay at 3.5 nM.
`N#CCCc1cc2cc[nH]c(=O)c2c2cc(Cl)ccc12` had an IC50 in assay [1] of 510 nM.
For the molecule `NCCc1cc2cc[nH]c(=O)c2c2cc(-c3ccn[nH]3)ccc12`, in the assay with NCI-H1299, the EC50 was 100 nM. The molecule further displayed an IC50 in assay [1] of 2.5 nM.
As to `CNCCc1cc2cc[nH]c(=O)c2c2cc(Br)ccc12`, in assay [1], half-maximal inhibition (IC50) was put at 44 nM.
As for `NCCCc1cc2cc[nH]c(=O)c2c2cc(-c3ccn[nH]3)ccc12`, the EC50 in the assay on NCI-H1299 came to 150 nM. In assay [1], this molecule had an IC50 of 4.3 nM.
`O=c1[nH]ccc2c3[nH]c(-c4ccccc4)nc3c3ccc(F)cc3c12`: half-maximal inhibition in assay [1] (IC50) was put at 1080 nM.
In turn, `C=Cc1c[nH]c(=O)c2c1cc(CCCN)c1ccc(-c3cn[nH]c3)cc12` showed an EC50 in the assay with NCI-H1299 of 210 nM. For the same molecule, in assay [1], inhibition was half-maximal at 3.6 nM (IC50).
Taken in the same sequence, the figures for `N#Cc1ccc2c(CCCN)cc3cc[nH]c(=O)c3c2c1` were 2200 nM and 25 nM.
`O=c1[nH]ccc2ccc3ccc(Cl)cc3c12` returned an IC50 in assay [1] of 580 nM.
In the assay on NCI-H1299, `NCCCc1cc2c(-c3ccc(Cl)cc3)c[nH]c(=O)c2c2cc(-c3cn[nH]c3)ccc12` returned an EC50 of 320 nM. The same molecule displayed an IC50 in assay [1] of 1.2 nM.
Taken in the same sequence, the figures for `NCCCc1cc2c(-c3ccccc3)c[nH]c(=O)c2c2cc(-c3cn[nH]c3)ccc12` were 140 nM and 2 nM.
Taken in the same sequence, the figures for `CN(C)CCNC(=O)c1ccc2c(CCCN)cc3cc[nH]c(=O)c3c2c1` were over 10000 nM and 2 nM.
In the assay with NCI-H1299, `NCCc1cc2cc[nH]c(=O)c2c2cc(-c3ccc[nH]3)ccc12` came in with an EC50 of 14 nM. This molecule also registered a half-inhibitory concentration (IC50) in assay [1] of 0.5 nM.
